Source: patent US10039806B2, “Methods and compositions for treating antiprogestin-resistant cancers” (Fundación Sales, priority 2011, dated 2018)

Experiments:
IBH-6-PRA tumors = assay: Xenograft in nude mice; format: in vivo, human
Excerpt: BH-6 cell line was developed from an invasive ductal breast carcinoma (1). IBH-6 cells express basal levels of hormone receptors, they are tumorigenic and in vivo express higher levels of PRB than PRA (2). Cells were transfected with human PRB, PRA (pSG5-PRB, pSG5-PRA, kindly provided by K. Horwitz) or with the empty vector (pSG5), together with a plasmid encoding the neomycin resistance gene pIRES-N1(3), using Lipofectamine transfection reagent (Invitrogen) following the manufacturer's instructions. Transfected and selected cells were cultured in medium supplemented with […] G418 (neomycin analogue, GIBCO). The expression of PRB and PRA were analyzed by western blot and immunofluorescence (using Ab7 and Ab6 antibodies from Thermo Fisher). T47D-YA or YB were kindly provided by K. Horwitz and cultured as previously described (4).
Transfected and selected cells were grown up to confluence, washed with PBS, detached with 0.25% trypsin, centrifuged at 1000 rpm for 10 min and resuspended in a final concentration of 10^6 (IBH-6) or 5×10^6 (T47D) cells per 100 μl of culture medium. The cells were sc inoculated into the right flank of nu/nu (IBH-6) or NOD/LtSz-scid/IL-2Rgamma null (T47D-YA or -YB cells) female mice. Only in experiments involving T47D cells E2 silastic pellets (0.5 mg) were implanted sc into the back of the animals one week prior tumor cell inoculation and 70 μl of Matrigel were mixed with the cell suspension at the moment of injection. MFP (6 mg) silastic pellets were sc implanted when tumors reached 20-40 mm^2. For T47D cells, experiments were repeated inoculating both cell types (T47D-YA or -YB) simultaneously in the left or right flank of the mouse, respectively.
Cytosolic or nuclear extracts were processed for western blots as described previously (5). The cells were lysed using Mammalian Protein Extraction Reagent (Pierce, Rockford, Ill.) according to the manufacturer's instructions. […] The band intensities from 3-4 different samples in different western blots were quantified using Image Quant software.

59-2-HI tumor = assay: MPA breast cancer model, responsive tumor in vivo; conditions: mouse
[1] = test system: prostate and ovarian cancer xenografts; conditions: 50 mg/kg/day; cited from earlier work
HI-responsive tumors = conditions: daily doses of 10 mg/kg; cited from earlier work
T47D-YB cells = conditions: 100 nM; cited from earlier work
MCF-7 xenografts = conditions: MIF 50 mg/kg/day, ONA 30 mg/kg/day, 17 days; cited from earlier work
C4-HIR cells = assay: (3H)-thymidine uptake, primary cultures of purified epithelial cells; format: cell-based, mouse; conditions: 48 h, with MPA; P<0.001
Experimental: (§1) Epithelial cells and carcinoma-associated fibroblasts were separated by differential sedimentation and plated with 10% FCS. Carcinoma-associated fibroblasts were allowed to attach for 0.5 h and the epithelial cells for 24-48 h. The medium was replaced by fresh medium with 10% FCS; thereafter, it was changed every 2-3 days.
(§2) (3H)-thymidine-uptake was used as an indirect method to evaluate cell proliferation. In brief, cells were seeded into 96-well microplates. After attachment (24 h), the cells were incubated for 24 h with 1% steroid-stripped FCS and then for 48 h with the experimental solutions to be tested in 1% chFCS. Fifty percent of the medium was replaced with fresh medium every 24 h. The cells were incubated with 0.4 μCi of 3H-thymidine (specific activity: 20 Ci/mmol) for 24 h, trypsinized, and harvested in a cell harvester. In experiments in which 5azadC was used, the experiments were carried out using proliferating cells (presence of 10% FCS) to guarantee the effect of the demethylating agent. Three different experiments were made using octuplicates, and the means and standard deviations of one representative experiment of the other three are shown. The results are expressed as the proliferation index (cpm […] experimental group/cpm control; mean±SEM).

C4-HI cells = assay: as above; format: cell-based, mouse; conditions: 48 h, with MPA; P<0.001
Experimental: as §1, §2

[2] = test system: epithelial cells from breast cancer samples; assay: Primary cultures from breast cancer samples: cell number or Ki67; format: cell-based, human
Excerpt: The samples were obtained at surgery from patients diagnosed with breast cancer at the […]. de Martinez Hospital from General Pacheco and at the […] Hospital of Buenos Aires after signing the informed consent (n=70; median age 55 year). Protocols were approved by the Institutional Ethical Review Board. Whenever possible, one piece of the sample was kept in dry ice immediately after surgery and another piece was kept in culture medium and transported to IBYME. Tumor samples were processed by mechanical and enzymatic degradation and epithelial cells were purified by differential sedimentation techniques (7). The epithelial cells were cultured with DMEM/F12 medium plus 10% fetal calf serum (FCS). Once the cultures were overcrowded, they were subcultured and equal numbers of cells were seeded in 24 well plates. […] OH-Tamoxifen was also used as a control. After one week of treatment, the cells were trypsinized and the total number of cells in each well was counted or alternatively, they were fixed to evaluate the Ki67 (proliferation marker) expression by IHC. In several cases in which there were carcinoma associated fibroblasts intermingled with the epithelial cells, a double staining of Ki67 and cytokeratin (CK) was performed to consider the proliferating cells among the total number of epithelial cells (CK+). An inhibitory index was calculated for each tumor.

[3] = test system: mammary hyperplasias and carcinomas; conditions: pellets of 35 mg; cited from earlier work
meningiomas = conditions: 200 mg/day for 2-31 months; after one year; cited from earlier work

CC#C[C@]1(O)CC[C@H]2[C@@H]3CCC4=CC(=O)CCC4=C3[C@@H](c3ccc(N(C)C)cc3)C[C@@]21C [RU-486, mifepristone]
in vivo growth (IBH-6-PRA tumors; MFP 6 mg pellet, p<0.05): inhibited | expression of MYC (IBH-6-PRA tumors; western blot, p<0.01): significantly inhibited | expression of CCND1 (IBH-6-PRA tumors; western blot, p<0.05): significantly inhibited | tumor regression (histology) (59-2-HI tumor): the tumor regresses | xenograft growth [1]: inhibitory | tumor regression (HI-responsive tumors): regress | cell proliferation (T47D-YB cells): increased cell proliferation | E2-induced proliferation of xenografts (MCF-7 xenografts): inhibited | MPA-induced proliferative effect (C4-HIR cells): abolished | MPA-induced proliferative effect (C4-HI cells): abolished | number of cells as compared to the controls ([2]; 10^-8 M, one week, 3 out of 8 cases, p<0.05): significant decrease in the number of cells | cell proliferation, case #137 ([2]; ER+ PR+ invasive ductal carcinoma, high PR-A/PR-B, 10^-8 M): decrease in cell proliferation | effect on cell proliferation ([2]; samples with high levels of PR-A expression): inhibitory effect | in vitro responsiveness ([2]; three PR negative tumors): no in vitro responsiveness | induction of hyperplasia or carcinoma [3]: prevented the induction of either hyperplasia or carcinoma | tumor response (meningiomas): Five out of thirteen tumors responded
